Laboratory results taken from article PMC2724550, “Citrus auraptene suppresses cyclin D1 and significantly delays N-methyl nitrosourea induced mammary carcinogenesis in female Sprague-Dawley rats” (BMC Cancer, 2009).

Key:
[1] = tested on: eukaryotic Initiation Factor 4E (eIF4E); experiment: Western blot of eIF4E expression in rat mammary tumors; assay type: in vivo, female Sprague-Dawley rats; details: dietary auraptene, data not shown
Experimental: (§1) The mammary tumors from the female Sprague-Dawley rats were analyzed for cyclin D1 expression and eukaryotic Initiation Factor 4E (eIF4E) as previously described. Briefly, samples were first homogenized in RIPA buffer [50 mM Tris-HCL (pH 7.4), 1% Triton-X, 150 mM NaCl, 1 mM EDTA, 1 mM sodium orthovanadate, 1 mM PMSF, 1 μg of aprotinin, leupeptin and pepstatin and 1 mM sodium fluoride]. The proteins were measured by Bradford method (using BSA as a standard), followed by the addition of 2 × sample buffer [0.125 M Tris, 10% (w/v) SDS, 40% (v/v) glycerol, 0.04% (w/v) bromophenol blue, and 80 mM dithiothreitol]. Samples were heated to 95°C for 5 min, and 10 μg of protein/well was loaded and resolved. The proteins were then transferred and detected for cyclin D1 expression as mentioned above. Lysate from MCF-7 cells treated with IGF-1 was used as positive control for cyclin D1.

[2] = tested on: c-Myc; parameters: method as in PMID 16979634; details: 25 μM auraptene, HT-29 human colorectal cancer cells; cited from earlier work
[3] = Stability of auraptene in diet by HPLC; assay type: physicochemical; details: animal room conditions, HPLC analysis, data not shown
[4] = tested on: cyclin D1; experiment: Western blot of IGF-1 induced cyclin D1 expression in MCF-7 cells; assay type: cell-based, human; details: 10 μM auraptene, 2 h pretreatment, 8 h after IGF-1, MCF-7 cells
Experimental: To study the effect of auraptene on the expression on cyclin D1, MCF-7 cells were plated in eight 12-well plates at 1.5 × 10^4 cells/well. The cells were incubated at 37°C till the next day in media with serum. The cells were serum starved for synchronization in serum free media for the next 24 h. At 22 h of serum starvation, the cells except in DMSO only and IGF-1 only groups, were treated with 10 μM auraptene in DMSO. At 24 h of serum starvation, the cells except in DMSO group were treated with 10 ng/mL of IGF-1. The cells were harvested at 5,15 and 30 minutes and at 1 h, 2 h, 4 h, 8 h and 24 h after IGF-1 treatment by directly adding boiling Laemmeli buffer. The cyclin D1 expression was then analyzed by western blot. In short, equal volumes (15 μL) of the sample in Laemmeli buffer was loaded into each well and resolved. The separated proteins were then electroblotted on a 0.45 μm pore size PVDF membrane (Immobilon-P, Millipore, Billerica, MA). After the protein transfer the membrane was placed in Millipore SNAP id Protein Detection System. […] The band intensity was evaluated using the Image-J software. […]
Figure 2 Effects of auraptene on human breast carcinoma cells. […] Cell proliferation was assessed using the MTT reagent. […] Cell proliferation was assessed using the MTS reagent. […]

[5] = parameters: method as in PMID 18444171; details: male Sprague-Dawley rats, cited from earlier work
[6] = tested on: cyclin D1; experiment: Western blot of cyclin D1 expression in rat mammary tumors; assay type: in vivo, female Sprague-Dawley rats; details: 500 ppm in diet, compared to MNU only group, n = 10 per group
Experimental: as §1
Figure 5 Effects of dietary auraptene on cyclin D1 expression in rat mammary tumors. From the same tumor study, rat mammary tumors were homogenized and the lysates were used for western blot to analyze the cyclin D1 expression. […] (+ statistically different from MNU group, * statistically different from Auraptene 200 group, p < 0.05, One-way ANOVA, Tukey test).

[7] = 500 μmol/kg bw p.o. gavage, 1–4 h

CC(C)=CCC/C(C)=C/COc1ccc2ccc(=O)oc2c1 [auraptene]
eIF4E protein expression in rat mammary tumors [1]: no significant change
expression of c-Myc [2]: suppressed the expression of c-Myc
stability in diet [3]: not degraded
IGF-1 induced cyclin D1 expression [4]: nearly a total loss of IGF-1 induced cyclin D1 expression
concentration in large intestine [5, 7]: ≤ 20 nmol/g
concentration in small intestine [5, 7]: ≤ 100 nmol/g
concentration in stomach [5, 7]: ~ 2000 nmol/g
hepatic concentration ([5]; within 1–4 h of oral administration): ~ 25 μm
reduction of cyclin D1 expression in rat mammary tumors [6]: 49%
